How the values were obtained:
[1] = target: T1, Serine/threonine-protein kinase Sgk1 (Homo sapiens) (UniProt O00141); test: Residual activity of SGK1 (unknown origin) at 10 uM incubated for 30 mins in presence of [gamma-33P]ATP by multidrop micro reagent based assay relative to control
T1 sequence (whole entry): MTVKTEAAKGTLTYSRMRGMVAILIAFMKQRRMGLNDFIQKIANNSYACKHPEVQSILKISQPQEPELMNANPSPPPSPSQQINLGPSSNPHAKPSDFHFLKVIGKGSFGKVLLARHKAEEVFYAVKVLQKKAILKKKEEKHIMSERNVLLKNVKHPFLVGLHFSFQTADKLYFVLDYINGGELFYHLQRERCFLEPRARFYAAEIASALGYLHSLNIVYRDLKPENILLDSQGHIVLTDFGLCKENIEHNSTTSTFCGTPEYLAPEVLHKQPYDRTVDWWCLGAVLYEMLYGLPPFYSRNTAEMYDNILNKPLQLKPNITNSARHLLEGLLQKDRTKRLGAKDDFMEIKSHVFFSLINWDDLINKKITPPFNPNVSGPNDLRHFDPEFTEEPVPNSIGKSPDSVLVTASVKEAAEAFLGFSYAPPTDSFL

[2] = target: Serine/threonine-protein kinase pim-2 (Homo sapiens) (UniProt Q9P1W9); test: Inhibition of PIM2 (unknown origin) at 10 uM incubated for 30 mins in presence of [gamma-33P]ATP by multidrop micro reagent based assay relative to control; values are per cent of control
[3] = target: Mitogen-activated protein kinase kinase kinase 9 (Homo sapiens) (UniProt P80192); test: Inhibition of MLK1 (unknown origin) at 10 uM incubated for 30 mins in presence of [gamma-33P]ATP by multidrop micro reagent based assay relative to control; values are per cent of control
[4] = target: T2, Dual specificity tyrosine-phosphorylation-regulated kinase 2 (Homo sapiens) (UniProt Q92630); test: Inhibition of DYRK2 (unknown origin) at 10 uM incubated for 30 mins in presence of [gamma-33P]ATP by multidrop micro reagent based assay relative to control; values are per cent of control
T2 sequence (whole entry): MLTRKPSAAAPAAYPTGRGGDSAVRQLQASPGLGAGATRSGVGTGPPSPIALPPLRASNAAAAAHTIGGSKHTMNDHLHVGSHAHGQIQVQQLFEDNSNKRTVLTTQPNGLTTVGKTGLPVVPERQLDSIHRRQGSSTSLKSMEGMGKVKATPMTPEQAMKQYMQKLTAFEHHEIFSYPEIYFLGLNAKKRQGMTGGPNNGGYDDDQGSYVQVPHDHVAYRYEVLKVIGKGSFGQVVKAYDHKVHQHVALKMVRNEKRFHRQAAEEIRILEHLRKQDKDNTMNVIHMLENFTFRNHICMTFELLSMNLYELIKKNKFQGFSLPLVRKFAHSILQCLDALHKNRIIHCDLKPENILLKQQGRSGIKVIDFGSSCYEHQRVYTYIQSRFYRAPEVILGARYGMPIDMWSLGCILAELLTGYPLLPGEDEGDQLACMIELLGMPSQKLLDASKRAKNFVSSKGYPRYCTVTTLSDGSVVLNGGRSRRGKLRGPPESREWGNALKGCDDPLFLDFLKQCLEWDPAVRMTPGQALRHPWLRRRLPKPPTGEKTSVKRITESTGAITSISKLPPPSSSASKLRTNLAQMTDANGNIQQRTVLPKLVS

[5] = target: T3, Protein kinase C zeta type (Homo sapiens) (UniProt Q05513); test: Inhibition of PKCzeta (unknown origin) at 10 uM incubated for 30 mins in presence of [gamma-33P]ATP by multidrop micro reagent based assay relative to control; values are per cent of control
T3 sequence (whole entry): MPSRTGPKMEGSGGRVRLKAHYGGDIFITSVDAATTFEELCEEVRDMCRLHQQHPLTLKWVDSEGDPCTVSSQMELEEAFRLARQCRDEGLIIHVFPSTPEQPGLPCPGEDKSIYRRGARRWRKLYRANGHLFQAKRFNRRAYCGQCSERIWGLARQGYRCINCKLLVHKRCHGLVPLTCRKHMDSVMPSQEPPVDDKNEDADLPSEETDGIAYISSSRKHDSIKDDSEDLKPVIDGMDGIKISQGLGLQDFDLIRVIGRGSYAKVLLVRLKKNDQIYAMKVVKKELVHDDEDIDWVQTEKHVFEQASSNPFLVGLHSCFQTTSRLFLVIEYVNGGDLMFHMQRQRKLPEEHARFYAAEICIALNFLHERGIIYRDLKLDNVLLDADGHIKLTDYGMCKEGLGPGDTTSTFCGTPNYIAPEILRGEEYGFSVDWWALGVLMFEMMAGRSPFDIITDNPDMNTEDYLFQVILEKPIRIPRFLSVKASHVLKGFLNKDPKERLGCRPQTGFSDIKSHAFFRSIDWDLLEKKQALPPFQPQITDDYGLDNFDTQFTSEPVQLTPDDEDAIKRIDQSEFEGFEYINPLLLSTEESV

[6] = target: T4, NUAK family SNF1-like kinase 1 (Homo sapiens) (UniProt O60285); test: Activity of NUAK1 (unknown origin) at 1 uM incubated for 30 mins in presence of [gamma-33P]ATP by multidrop micro reagent based assay relative to control
T4 sequence (whole entry): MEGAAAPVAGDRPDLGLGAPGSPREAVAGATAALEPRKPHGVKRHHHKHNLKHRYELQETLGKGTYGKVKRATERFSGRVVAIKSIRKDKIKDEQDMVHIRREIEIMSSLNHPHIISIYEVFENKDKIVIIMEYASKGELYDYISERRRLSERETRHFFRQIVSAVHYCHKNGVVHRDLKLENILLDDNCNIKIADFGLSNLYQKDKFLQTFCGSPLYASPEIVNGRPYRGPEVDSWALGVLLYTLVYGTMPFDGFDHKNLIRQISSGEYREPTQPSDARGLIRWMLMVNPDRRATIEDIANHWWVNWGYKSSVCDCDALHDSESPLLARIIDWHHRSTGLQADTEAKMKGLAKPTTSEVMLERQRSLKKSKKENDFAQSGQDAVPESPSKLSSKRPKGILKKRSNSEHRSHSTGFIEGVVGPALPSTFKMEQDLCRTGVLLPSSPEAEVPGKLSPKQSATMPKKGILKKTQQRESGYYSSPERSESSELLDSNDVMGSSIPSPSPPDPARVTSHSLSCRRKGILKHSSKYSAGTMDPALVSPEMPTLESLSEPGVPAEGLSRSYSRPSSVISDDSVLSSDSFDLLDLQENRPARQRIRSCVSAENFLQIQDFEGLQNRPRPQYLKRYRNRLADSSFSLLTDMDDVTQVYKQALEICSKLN

Chain of Serine/threonine-protein kinase pim-2 (Homo sapiens) (Q9P1W9 whole entry, looked up): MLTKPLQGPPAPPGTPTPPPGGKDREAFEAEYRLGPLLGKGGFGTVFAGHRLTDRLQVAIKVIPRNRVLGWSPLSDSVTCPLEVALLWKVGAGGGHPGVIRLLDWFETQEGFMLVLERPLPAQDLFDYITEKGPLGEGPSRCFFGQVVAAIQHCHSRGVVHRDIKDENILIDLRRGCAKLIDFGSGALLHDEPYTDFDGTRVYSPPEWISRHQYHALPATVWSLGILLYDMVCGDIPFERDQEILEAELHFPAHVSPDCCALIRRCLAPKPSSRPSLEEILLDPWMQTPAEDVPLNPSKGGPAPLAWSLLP
Chain of Mitogen-activated protein kinase kinase kinase 9 (Homo sapiens) (P80192 whole entry, looked up): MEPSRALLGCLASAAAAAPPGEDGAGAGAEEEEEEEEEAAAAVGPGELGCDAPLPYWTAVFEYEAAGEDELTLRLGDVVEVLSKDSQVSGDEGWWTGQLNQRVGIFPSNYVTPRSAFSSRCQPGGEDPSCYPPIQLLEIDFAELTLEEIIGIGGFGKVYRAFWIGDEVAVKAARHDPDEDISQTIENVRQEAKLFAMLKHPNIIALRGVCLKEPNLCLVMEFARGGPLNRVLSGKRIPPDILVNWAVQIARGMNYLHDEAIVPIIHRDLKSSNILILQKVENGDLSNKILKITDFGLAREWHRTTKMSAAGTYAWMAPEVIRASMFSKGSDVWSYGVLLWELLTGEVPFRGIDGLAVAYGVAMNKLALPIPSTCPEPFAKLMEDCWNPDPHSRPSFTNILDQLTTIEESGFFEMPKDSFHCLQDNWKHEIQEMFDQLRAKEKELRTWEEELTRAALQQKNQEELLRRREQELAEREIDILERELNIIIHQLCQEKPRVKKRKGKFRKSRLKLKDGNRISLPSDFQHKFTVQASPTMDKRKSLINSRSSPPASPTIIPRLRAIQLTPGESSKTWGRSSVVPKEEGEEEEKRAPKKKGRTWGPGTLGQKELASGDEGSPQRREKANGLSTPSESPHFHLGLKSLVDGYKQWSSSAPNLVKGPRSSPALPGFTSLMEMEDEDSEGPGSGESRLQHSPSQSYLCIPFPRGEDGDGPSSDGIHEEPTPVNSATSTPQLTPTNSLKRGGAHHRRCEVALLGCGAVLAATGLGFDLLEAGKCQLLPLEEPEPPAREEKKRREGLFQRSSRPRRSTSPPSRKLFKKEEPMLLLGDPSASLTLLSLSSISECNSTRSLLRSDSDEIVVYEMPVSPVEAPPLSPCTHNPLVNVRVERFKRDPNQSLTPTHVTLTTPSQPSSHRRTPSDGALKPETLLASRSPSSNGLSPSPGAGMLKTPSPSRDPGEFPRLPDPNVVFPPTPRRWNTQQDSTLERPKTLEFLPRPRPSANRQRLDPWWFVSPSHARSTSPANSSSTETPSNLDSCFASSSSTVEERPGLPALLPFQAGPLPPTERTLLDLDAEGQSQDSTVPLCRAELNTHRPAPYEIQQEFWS

`C[C@@H](N)[C@H]1CC[C@H](C(=O)Nc2ccncc2)CC1` gave a residual activity [1] of 50%, a residual activity [2] of 102% and a residual activity [3] of 90%. For the same compound, the residual activity [4] was 92% and the residual activity [5] was 69%.
`CCn1c(-c2nonc2N)nc2cnc(Oc3cccc(NC(=O)c4ccc(OCCN5CCOCC5)cc4)c3)cc21` [GSK-269962A] was tested, and the residual activity [6] was 39%.
In the case of `O=S(=O)(c1cccc2cnccc12)N1CCCNCC1` [FASUDIL], the residual activity [1] is reported as 69%, the residual activity [2] is reported as 111% and the residual activity [3] is reported as 56%. It also gave a residual activity [4] of 80% and a residual activity [5] of 66%.
In the case of `CCN(CC)CCNC(=O)c1c(C)[nH]c(/C=C2\C(=O)Nc3ccc(F)cc32)c1C`, the residual activity [6] is reported as 15%.

From ChEMBL document CHEMBL5705888, “Substrate specificity and inhibitors of LRRK2, a protein kinase mutated in Parkinson's disease” (Biochem J, 2009)
